Measured values reported in patent US5716934A, “Eck receptor ligands” (Amgen Inc., priority 1995, dated 1998).

Test system: eck receptor (p130^eck)
Test: p130eck autophosphorylation in LIM 2405 cells
Assay type: cell-based, human
Settings: for eck receptor phosphorylation: intact LIM 2405 cells, 10-15 min at 37° C.
Procedure: The LIM 2405 colorectal carcinoma cell line (Whitehead et al. Immunol. and Cell Biol. 70, 227 (1992)) was maintained in RPMI 1640 containing 5% FBS, 1 μg/ml insulin, 10 μg/ml hydrocortisone and 10 μM α-thioglycerol, and subpassaged by trypsination and dilution (1:5) into fresh media. Prior to assay 2.5×10^5 LIM 2405 cells were seeded into 6-well dishes (Falcon #3046) and incubated for 24 hr at 37° C. The media was discarded and replaced with serum-free RPMI 1640 containing 0.03% BSA, 1 μg/ml insulin, 10 μg/ml hydrocortisone and 10 μM α-thioglycerol, then incubated for 12-18 hr. In some experiments the cell cultures were labelled with ^32 P-orthophosphate (2 mCi/ml) in phosphate-free RPMI 1640 (Flow) for 2-3 hr prior to treatment. Growth factor stock solutions were prediluted at varying concentrations into 2.0 ml of serum-free media, then warmed to 37° C. Cell cultures were removed from the incubator, and the supernatant media discarded. Treatments were promptly added and the cell cultures incubated at 37° C. for 10-15 min. The cultures were then removed from the incubator, placed on ice, and the culture supernatant aspirated.
The treated cell cultures were chilled to 0° C. then washed once with ice-cold PBS (GIBCO). The residual PBS was aspirated and the cells were lysed by the addition of 1.0 ml of ice-cold RIPA buffer (10 mM sodium phosphate, pH 7.4, 150 mM sodium chloride, 0.1% sodium dodecyl sulfate, 1% NP-40, 1% deoxycholate, 1% Trasylol, 2 mM EDTA, 50 mM sodium fluoride and 100 mM sodium orthovanadate). After a 10 min incubation the lysates were transferred to 1.5 ml tubes and clarified by centrifugation for 30 min at 10,000×g. The clarified lysate supernatants were transferred to new tubes and immunoprecipitated with 1.0 μg/ml of affinity purified rabbit anti-Eck C-terminal domain antibody for 2 hr at 0° C. Immune complexes were adsorbed to Protein-G Sepharose beads (Pharmacia) at 4° C. for 30 min, washed twice with ice-cold RIPA buffer, once with 0.1M Tris-HCl, pH 8.0, containing 0.5M LiCl, and once with RIPA. The resulting immunoprecipitates were solubilized with SDS-PAGE sample buffer and stored for further analysis.
The anti-eck immunoprecipitates from treated and untreated LIM 2405 cell lysates were resolved on 7.5% polyacrylamide gels as previously described (Boyle et al. Meth. Enzymol. 201, 110 (1991)). […] Immune complexes were detected by chemiluminescent exposure (ECL, Amersham) to Kodak X-OMAT X-ray film at room temperature for 0.5-5 min.
Eck receptor immunoprecipitates from ^32 P-labelled LIM 2405 cells were resolved by SDS-PAGE, and the gel dried directly without fixation. After exposure to X-ray film the labelled eck receptor band was isolated and phosphoamino acid content determined as described (Boyle et al. Meth. Enzymol. 201, 110 (1991))

With “CHO-EBP: recombinant EBP purified from supernatants of CHO cells transfected with the EBP gene; mainly EBP^1-150 and EBP^1-159” the “total cellular eck protein levels” value (LIM 2405 cells after exposure to soluble EBP) was “modest dose-dependent decrease”, the eck receptor phosphorylation (listed as CHO cell-derived rEBP) was “stimulated eck receptor phosphorylation” and the eck receptor phosphorylation (listed as CHO-derived rEBP) was “active in inducing phosphorylation”.
